Laboratory results reported in patent publication US20260083865A1, “PROSTATE SPECIFIC MEMBRANE ANTIGEN (PSMA) LIGANDS AND USE THEREOF” (priority 2022, published 2026).
Read-outs that look alike come from different tables or passages of the source. Numbered stars: 1 amine (or outer) side, 2 acyl side, 3 side chain; on linkers, the order of the positions; unused ones are H or OH. Bridge positions count the residues as written; N and C are the ends. Square brackets hold non-standard residues; d marks the D form. Side chains are listed from the residue outwards. Peptide text beside a SMILES is read from it. * marks the point of attachment. Acetyl(1-DOTA-4-piperidyl) = O=C(O)CN1CCN(CC(=O)O)CCN(CC(=O)N2CCC(CC(=O)*)CC2)CCN(CC(=O)O)CC1; X3 = O=C(O)CN1CCN(CC(=O)O)CCN(CC(=O)NCCCOCCOCCOCCCN*)CCN(CC(=O)O)CC1; X2 = O=C(O)CN1CCN(CC(=O)O)CCN([C@H](CCC(=O)*)C(=O)O)CCN(CC(=O)O)CC1; DOTA = O=C(O)CN1CCN(CC(=O)O)CCN(CC(=O)*)CCN(CC(=O)O)CC1; Phe(3-Cl) = N[C@@H](Cc1cccc(Cl)c1)C(=O)O; Phe(4-Cl) = N[C@@H](Cc1ccc(Cl)cc1)C(=O)O; Ethylenediamine = C(CN[*:2])N[*:1]; X1 = O=C(CC1CCN([*:1])CC1)[*:2]; Cit = NC(=O)NCCC[C@H](N)C(=O)O; Suc = O=C(CCC(=O)[*:2])[*:1]; Tle = CC(C)(C)[C@H](N)C(=O)O; Propanoyl(3-OH) = O=C(CCO)*; 4Amb = NCc1ccc(C(=O)O)cc1; Hexanoyl = CCCCCC(=O)*; AEEA = NCCOCCOCC(=O)O; Aib = CC(C)(N)C(=O)O

What was measured:
[1] = target: T1, PSMA-expressing C4-2 cells (Homo sapiens, UniProt Q04609); assay: FACS binding assay (competition with 50 nM PSM-0183); details: FACS binding, read-out: pIC50 [C4-2] CAT (converted)
T1 construct: PSMA-expressing C4-2 cells (ATCC, Cat. No. CRL-3314) were cultured in RPMI-1640; host or cells: C4-2 cells
In short: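 C4-2 cells were incubated 1 h at 4 °C with 50 nM AF488-labelled peptide PSM-0183 plus increasing test compound concentrations, then washed twice in ice-cold buffer. Median fluorescence in the AF488 channel was read by flow cytometry. IC50/pIC50 was derived by 4PL fitting of MFI versus concentration.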

[2] = target: T2, Fc-fusion protein of human PSMA (hPSMA-Fc) (Homo sapiens, UniProt Q04609); assay: Surface plasmon resonance assay (Biacore T200, single cycle kinetic); type: binding; details: hPSMA-Fc, 25° C., read-out: pKD CAT (converted)
T2 construct: purchased Acro Biosystems PSA-H5264
In short: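 hPSMA-Fc was captured (~1000 RU) on an Fc-binding-peptide CM5 chip, and compounds were run in single cycle kinetic mode at 25° C in HBST with 0.1% DMSO. Double-blank-corrected sensorgrams were fitted to a 1:1 Langmuir model to give KD, reported as pKD.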

PC3-PIP tumor model = tested on: PC3-PIP tumor model; set-up: species or system mice; details: mouse, in vivo
Source text: Radioactively labeled compounds can be detected by imaging methods such as SPECT and PET. Furthermore, the data acquired by such techniques can be confirmed by direct measurement of radioactivity contained in the individual organs prepared from an animal injected with a radioactively labeled compound of the disclosure. Thus, the biodistribution (the measurement of radioactivity in individual organs) of a radioactively labeled compound can be determined and analyzed. […] All animal experiments were conducted in compliance with the German animal protection laws. Male swiss or NMRI nude mice (6-8 weeks old, Janvier Labs, France) were inoculated with 5×10^6 PC3-PIP cells in the right shoulder. For selected compounds an additional model was used, here male NMRI nude mice (6-8 weeks old, Janvier Labs, France) were inoculated with 5×10^6 or/1×10^7 C4-2 cells in the right shoulder. When tumors reached an appropriate size, the mice received ˜30 MBq ^111In-labeled compounds of the disclosure (diluted to 100 μL with PBS) administered intravenously via the tail vein. Images were obtained on a NanoSPECT/computed tomography system (Mediso Medical Imaging Systems, Budapest, Hungary) using exemplarily the following acquisition and reconstruction parameters (Table 10). [table] Imaging data were saved as DICOM files and analysed using VivoQuant™ software (Invicro, Boston, USA). In brief, regions of interest (ROIs) were drawn based on computed tomography images for the relevant organs and tissue regions such as heart (estimate of blood pool, bps), kidney, and tumor. The resulting numeric data expressed as a percentage of injected dose per gram of tissue (% ID/g) are presented in FIGS. 3(a)-3(ii) for the PC3-PIP model and FIGS. 4(a)-4(r) for the C4-2 model. Bars show mean % ID/g values of two to three animals per time point. Error bars indicate the value range (minimum and maximum values).

[3] = C4-2 cells, competition with 50 nM PSM-0183, category
[4] = SPR, single cycle kinetic, category
[5] = PSMA-expressing C4-2 cells, pIC50 category

T1 sequence (Q04609 whole entry): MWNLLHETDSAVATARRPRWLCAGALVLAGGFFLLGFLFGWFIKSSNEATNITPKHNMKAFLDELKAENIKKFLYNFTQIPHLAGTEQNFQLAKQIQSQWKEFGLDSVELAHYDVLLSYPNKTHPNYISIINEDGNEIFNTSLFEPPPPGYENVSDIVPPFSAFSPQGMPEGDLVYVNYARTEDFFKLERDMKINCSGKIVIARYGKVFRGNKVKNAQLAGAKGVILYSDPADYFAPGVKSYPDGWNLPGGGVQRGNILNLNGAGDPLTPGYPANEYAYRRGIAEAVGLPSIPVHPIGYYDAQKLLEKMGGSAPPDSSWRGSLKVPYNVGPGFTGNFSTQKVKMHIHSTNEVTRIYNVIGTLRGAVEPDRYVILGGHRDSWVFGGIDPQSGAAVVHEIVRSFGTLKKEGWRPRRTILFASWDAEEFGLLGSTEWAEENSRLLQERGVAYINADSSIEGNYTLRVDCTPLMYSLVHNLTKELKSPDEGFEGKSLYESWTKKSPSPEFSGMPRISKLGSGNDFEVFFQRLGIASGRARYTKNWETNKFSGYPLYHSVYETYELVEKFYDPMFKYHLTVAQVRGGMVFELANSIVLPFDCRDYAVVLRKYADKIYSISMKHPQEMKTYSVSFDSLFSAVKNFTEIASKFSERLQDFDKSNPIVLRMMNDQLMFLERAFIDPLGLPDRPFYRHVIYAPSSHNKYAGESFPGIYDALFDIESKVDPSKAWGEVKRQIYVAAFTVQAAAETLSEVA
T2 sequence (Q04609 44-750 limits assumed): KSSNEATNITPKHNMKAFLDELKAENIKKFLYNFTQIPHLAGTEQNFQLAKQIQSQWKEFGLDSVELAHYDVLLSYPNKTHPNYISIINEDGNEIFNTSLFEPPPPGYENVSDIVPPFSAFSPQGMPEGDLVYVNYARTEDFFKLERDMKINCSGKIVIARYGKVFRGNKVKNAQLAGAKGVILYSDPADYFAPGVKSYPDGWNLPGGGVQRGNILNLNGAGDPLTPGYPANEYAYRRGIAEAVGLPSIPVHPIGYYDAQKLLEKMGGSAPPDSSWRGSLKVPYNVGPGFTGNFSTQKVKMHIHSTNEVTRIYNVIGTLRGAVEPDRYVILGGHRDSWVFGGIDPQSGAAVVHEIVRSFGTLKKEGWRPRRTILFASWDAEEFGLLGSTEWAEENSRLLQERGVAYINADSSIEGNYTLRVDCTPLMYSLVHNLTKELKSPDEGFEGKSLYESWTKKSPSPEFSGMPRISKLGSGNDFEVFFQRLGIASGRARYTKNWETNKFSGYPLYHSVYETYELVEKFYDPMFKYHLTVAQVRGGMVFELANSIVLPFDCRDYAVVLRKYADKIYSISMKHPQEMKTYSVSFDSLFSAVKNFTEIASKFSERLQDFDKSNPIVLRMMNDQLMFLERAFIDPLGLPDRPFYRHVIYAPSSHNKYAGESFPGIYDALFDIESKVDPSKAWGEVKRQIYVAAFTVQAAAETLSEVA

SMILES	IC50 [1, 3] [nM]	Kd [2, 4] [nM]	AUC ratio [T/K] (PC3-PIP tumor model)	Tumor AUC (PC3-PIP tumor model) [% ID/g*h]	IC50 [1, 5] [nM]	Kd ([2]; PSMA SPR assay, pKD category) [nM]
C[C@@H](O)[C@H](NC(=O)[C@@H](NC(=O)[C@@H]1CSSC[C@H](NC(=O)[C@H](Cc2ccccc2)NC(=O)C(C)(C)NC(=O)[C@@H](NC(=O)CC2CCN(C(=O)CC[C@H](C(=O)O)N3CCN(CC(=O)O)CCN(CC(=O)O)CCN(CC(=O)O)CC3)CC2)[C@@H](C)O)C(=O)N[C@@H](CCCCN)C(=O)N[C@@H](CCCNC(=N)N)C(=O)NC(C)(C)C(=O)N[C@@H](CC(N)=O)C(=O)N1)C(C)(C)C)C(N)=O [PSM-0218, DOTAGA-Cmp-Thr-Aib-Phe-[Cys-Lys-Arg-Aib-Asn-Cys]-Tle-Thr-NH2] (X2-[X1]T[Aib]FCKR[Aib]NC[Tle]T-NH2; disulfide 5-10)	< 200	< 12.6	1.2	150		
CCCCCC(=O)N[C@H](C(=O)NC(C)(C)C(=O)N[C@@H](Cc1ccc(Cl)cc1)C(=O)N[C@H]1CSSC[C@@H](C(=O)N[C@H](C(=O)N[C@H](C(=O)N[C@H](CCCCNC(=O)CC2CCN(C(=O)CN3CCN(CC(=O)O)CCN(CC(=O)O)CCN(CC(=O)O)CC3)CC2)C(N)=O)[C@@H](C)O)C(C)(C)C)NC(=O)[C@H](CC(N)=O)NC(=O)C(C)(C)NC(=O)[C@H](CCCNC(N)=O)NC(=O)[C@H](CCCCN)NC1=O)[C@@H](C)O [PSM-0239, Hex-Thr-Aib-Pcf-[Cys-Lys-Cit-Aib-Asn-Cys]-Tle-Thr-lys(DOTA-Cmp)-NH2] (Hexanoyl-T[Aib][Phe(4-Cl)]CK[Cit][Aib]NC[Tle]T[dK](Acetyl(1-DOTA-4-piperidyl))-NH2; disulfide 4-9)	< 200	< 12.6	1.2	210		
C[C@@H](O)[C@H](NC(=O)CC1CCN(C(=O)CN2CCN(CC(=O)O)CCN(CC(=O)O)CCN(CC(=O)O)CC2)CC1)C(=O)NC(C)(C)C(=O)N[C@@H](Cc1ccccc1)C(=O)N[C@H]1CSSC[C@@H](C(=O)N[C@H](C(=O)NCCN)C(C)(C)C)NC(=O)[C@H](CC(N)=O)NC(=O)C(C)(C)NC(=O)[C@H](CCCNC(=N)N)NC(=O)[C@H](CCCCN)NC1=O [PSM-0241, DOTA-Cmp-Thr-Aib-Phe-[Cys-Lys-Arg-Aib-Asn-Cys]-Tle-en] ({DOTA}-[X1]T[Aib]FCKR[Aib]NC[Tle]-Ethylenediamine; disulfide 5-10)	< 200	< 12.6	0.54	300		
C[C@@H](O)[C@H](NC(=O)[C@@H](NC(=O)[C@@H]1CSSC[C@H](NC(=O)[C@H](Cc2ccc(Cl)cc2)NC(=O)C(C)(C)NC(=O)CCO)C(=O)N[C@@H](CCCCN)C(=O)N[C@@H](CCCNC(=N)N)C(=O)NC(C)(C)C(=O)N[C@@H](CC(N)=O)C(=O)N1)C(C)(C)C)C(=O)N[C@H](CCCCNC(=O)CN1CCN(CC(=O)O)CCN(CC(=O)O)CCN(CC(=O)O)CC1)C(N)=O [PSM-0267, HPA-Aib-Pcf-[Cys-Lys-Arg-Aib-Asn-Cys]-Tle-Thr-lys(DOTA)-NH2] ({Propanoyl(3-OH)}-[Aib][Phe(4-Cl)]CKR[Aib]NC[Tle]T[dK](DOTA)-NH2; disulfide 3-8)	< 200	< 12.6	1.2	170		
CC(=O)N[C@H](C(=O)NC(C)(C)C(=O)N[C@@H](Cc1ccc(Cl)cc1)C(=O)N[C@H]1CSSC[C@@H](C(=O)N[C@H](C(=O)NCCNC(=O)CN2CCN(CC(=O)O)CCN(CC(=O)O)CCN(CC(=O)O)CC2)C(C)(C)C)NC(=O)[C@H](CC(N)=O)NC(=O)C(C)(C)NC(=O)[C@H](CCCNC(=N)N)NC(=O)[C@H](CCCCN)NC1=O)[C@@H](C)O [PSM-0269, Ac-Thr-Aib-Pcf-[Cys-Lys-Arg-Aib-Asn-Cys]-Tle-en-DOTA] (Ac-T[Aib][Phe(4-Cl)]CKR[Aib]NC[Tle]-{Ethylenediamine-DOTA}; disulfide 4-9)			0.87	150	< 200	< 12.6
CC(C)(NC(=O)c1ccc(CNC(=O)CN2CCN(CC(=O)O)CCN(CC(=O)O)CCN(CC(=O)O)CC2)cc1)C(=O)N[C@@H](Cc1ccc(Cl)cc1)C(=O)N[C@H]1CSSC[C@@H](C(=O)N[C@H](C(=O)NCCN)C(C)(C)C)NC(=O)[C@H](CC(N)=O)NC(=O)C(C)(C)NC(=O)[C@H](CCCNC(=N)N)NC(=O)[C@H](CCCCN)NC1=O [PSM-0273, DOTA-Pamb-Aib-Pcf-[Cys-Lys-Arg-Aib-Asn-Cys]-Tle-en] ({DOTA-4Amb}-[Aib][Phe(4-Cl)]CKR[Aib]NC[Tle]-Ethylenediamine; disulfide 3-8)			0.21	110	< 200	< 12.6
C[C@@H](O)[C@H](NC(=O)[C@@H](NC(=O)[C@@H]1CSSC[C@H](NC(=O)[C@H](Cc2ccc(Cl)cc2)NC(=O)C(C)(C)NC(=O)c2ccc(CNC(=O)CN3CCN(CC(=O)O)CCN(CC(=O)O)CCN(CC(=O)O)CC3)cc2)C(=O)N[C@@H](CCCCN)C(=O)N[C@@H](CCCNC(=N)N)C(=O)NC(C)(C)C(=O)N[C@@H](CC(N)=O)C(=O)N1)C(C)(C)C)C(N)=O [PSM-0283, DOTA-Pamb-Aib-Pcf-[Cys-Lys-Arg-Aib-Asn-Cys]-Tle-Thr-NH2] ({DOTA-4Amb}-[Aib][Phe(4-Cl)]CKR[Aib]NC[Tle]T-NH2; disulfide 3-8)			1.6	200	< 200	< 12.6

More lines, now with the values ahead:

IC50 [1, 3] [nM]	Kd [2, 4] [nM]	AUC ratio [T/K] (PC3-PIP tumor model)	Tumor AUC (PC3-PIP tumor model) [% ID/g*h]	IC50 [1, 5] [nM]	Kd ([2]; PSMA SPR assay, pKD category) [nM]	SMILES
200 to 1260	12.6 to 126	0.64	62			C[C@@H](O)[C@H](NC(=O)[C@@H](NC(=O)[C@@H]1CSSC[C@H](NC(=O)[C@H](Cc2ccccc2)NC(=O)C(C)(C)NC(=O)[C@@H](NC(=O)CCC(=O)NCCCOCCOCCOCCCNC(=O)CN2CCN(CC(=O)O)CCN(CC(=O)O)CCN(CC(=O)O)CC2)[C@@H](C)O)C(=O)N[C@@H](CCCCN)C(=O)N[C@@H](CCCNC(N)=O)C(=O)NC(C)(C)C(=O)N[C@@H](CC(N)=O)C(=O)N1)C(C)(C)C)C(N)=O [PSM-0234, DOTA-Ttds-Thr-Aib-Phe-[Cys-Lys-Cit-Aib-Asn-Cys]-Tle-Thr-NH2] ({X3-Suc}-T[Aib]FCK[Cit][Aib]NC[Tle]T-NH2; disulfide 4-9)
< 200	< 12.6	0.44	180			C[C@@H]1NC(=O)[C@H](CCCNC(=N)N)NC(=O)[C@H](CCCCN)NC(=O)[C@@H](NC(=O)[C@H](Cc2ccccc2)NC(=O)C(C)(C)NC(=O)[C@@H](NC(=O)CCC(=O)NCCCOCCOCCOCCCNC(=O)CN2CCN(CC(=O)O)CCN(CC(=O)O)CCN(CC(=O)O)CC2)[C@@H](C)O)CSSC[C@@H](C(=O)N[C@H](C(=O)N[C@H](C(N)=O)[C@@H](C)O)C(C)(C)C)NC(=O)[C@H](CC(N)=O)NC1=O [PSM-0237, DOTA-Ttds-Thr-Aib-Phe-[Cys-Lys-Arg-Ala-Asn-Cys]-Tle-Thr-NH2] ({X3-Suc}-T[Aib]FCKRANC[Tle]T-NH2; disulfide 4-9)
< 200	< 12.6	0.53	130			CC(=O)N[C@H](C(=O)NC(C)(C)C(=O)N[C@@H](Cc1cccc(Cl)c1)C(=O)N[C@H]1CSSC[C@@H](C(=O)N[C@H](C(=O)N[C@H](C(N)=O)[C@@H](C)O)C(C)(C)C)NC(=O)[C@H](CC(N)=O)NC(=O)[C@H](CCCCNC(=O)COCCOCCNC(=O)CN2CCN(CC(=O)O)CCN(CC(=O)O)CCN(CC(=O)O)CC2)NC(=O)[C@H](CCCNC(=N)N)NC(=O)[C@H](CCCCN)NC1=O)[C@@H](C)O [PSM-0243, Ac-Thr-Aib-Mcf-[Cys-Lys-Arg-Lys(DOTA-O2Oc)-Asn-Cys]-Tle-Thr-NH2] (Ac-T[Aib][Phe(3-Cl)]CKRK([AEEA-DOTA])NC[Tle]T-NH2; disulfide 4-9)
